This note sets out measurements from BindingDB's records for doi:10.1021/acs.jmedchem.0c00964 (Philipps-University, 2020).

The assay deals with T1, Orexin/Hypocretin receptor type 1 (Homo sapiens, UniProt O43613).
T1 sequence (O43613 whole entry): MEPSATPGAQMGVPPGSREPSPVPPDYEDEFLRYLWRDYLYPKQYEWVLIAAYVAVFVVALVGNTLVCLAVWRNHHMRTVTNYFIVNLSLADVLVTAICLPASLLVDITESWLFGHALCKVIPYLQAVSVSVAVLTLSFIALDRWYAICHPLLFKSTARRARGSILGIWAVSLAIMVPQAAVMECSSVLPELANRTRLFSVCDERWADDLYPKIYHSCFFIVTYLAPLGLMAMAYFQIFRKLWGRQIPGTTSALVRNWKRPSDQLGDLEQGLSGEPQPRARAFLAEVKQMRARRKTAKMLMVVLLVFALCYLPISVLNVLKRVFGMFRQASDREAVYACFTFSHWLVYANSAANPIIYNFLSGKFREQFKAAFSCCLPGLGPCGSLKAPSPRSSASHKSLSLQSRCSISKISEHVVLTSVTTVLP
Put plainly: Displacement of [3H]-[…] from human orexin 1 receptor expressed in CHO cells incubated for 2 hrs by whole cell radioligand binding assay. On the technique in general: In a radioligand displacement assay an active substance lowers the binding of a labelled ligand.
Broadly, the Ki is the equilibrium dissociation constant of an inhibitor or competing ligand from its target. A lower Ki goes with higher affinity. Consider `O=C1NC(=O)C(=Cc2c(OCc3ccccc3F)ccc3ccccc23)C(=O)N1`, for which the Ki was 33.1 µM.

`O=C(/C=C/c1cccc(F)c1)N1CCOc2c(cc(-c3cccnc3)cc2OC[C@H]2CCCCO2)C1` came in with a Ki of 21.4 µM.

In turn, `O=C(c1sc2cccc(F)c2c1Cl)N1CCN(Cc2ccco2)CC1` returned an inhibition constant (Ki) of 43.7 µM.

`O=C1CCCN1c1cccc(C(=O)N(Cc2ccc(F)cc2)C2CC2)c1`: the Ki was found to be 32.4 µM.

Compound `COc1ccc(C(=O)Oc2cc(=O)n(-c3ccccc3)c3c2CCCC3)cc1` came in with a Ki of 24.5 µM.
